Measured values as given in patent US20260015311A1, “AMINO LIPID COMPOUND, PREPARATION METHOD THEREFOR, AND USE THEREOF” (SHENZHEN SHENXIN BIOTECHNOLOGY CO., LTD., priority 2022, published 2026).

How the values were obtained:
Fluc mRNA [1] = assay: Activity of lipid nanoparticles of formulation method 2, Fluc mRNA by intramuscular administration; format: in vivo, BALB/c mice
Protocol: (§1) The formulation method was the same as the formulation method 1, except that the molar ratio of the amino lipid compounds to DSPC, cholesterol and PEG2000-DMG was 50:10:38.5:1.5.
(§2) 9 mice were assigned randomly to each group and injected with the lipid nanoparticles at a dosage of 0.5 mg/kg by three administration routes, i.e., subcutaneous, intramuscular and tail vein injection (three mice for each administration route). After 12 hours, D-luciferin potassium salt (200 μL, 10 mg/mL) was injected into each mouse through the tail vein. After 10 minutes, the total fluorescence intensity of each mouse was observed on a living imaging system (IVIS-200, Xenogen) and taken photographs for record. The expression intensities of Fluc mRNA delivered by representative amino lipid compounds through the three administration routes are shown in Table 2-4. MC3 was used as a control and SM102 was used as a comparative compound.
Preparation of Lipid Nanoparticles: LNPs were Prepared Using the Formulation Method 2 for Intramuscular Administration.
The measurement method was the same as that of Test Example 1.

Fluc mRNA [2] = assay: In vivo delivery of luciferase mRNA (Fluc mRNA) by lipid nanoparticles, living imaging; set-up: species or system BALB/c mice; conditions: after 12 hours, total fluorescence
Protocol: (§3) The amino lipid compounds of the present disclosure were mixed with DOPE, cholesterol, and PEG2000-DMG in a molar ratio of 45:10:42.5:2.5 and dissolved in absolute ethanol. By using a microinjection pump, the resultant ethanol solution and a sodium acetate solution (50 mM, pH=4.0) were mixed in a ratio of 1:3 in a microfluidic chip to prepare a crude solution of lipid nanoparticles, which were then dialyzed in 1×PBS at a controlled temperature of 4° C. for 6 h using a dialysis box (Fisher, MWCO 20,000), and filtered through a 0.22 μm microporous filter membrane before use.
as §1
The lipid nanoparticles prepared according to the above formulation method 1 or 2 were used in the biological experiments below for evaluating the performances of in vivo delivery of luciferase mRNA (Fluc mRNA). For the lipid nanoparticles obtained in the formulation method 1, the mass ratio of the amino lipid compounds to the luciferase mRNA was about 10:1, and the lipid nanoparticles were administered subcutaneously; and the lipid nanoparticles obtained in the formulation method 2 were administered by tail vein and intramuscular injection.
6-week-old female BALB/c mice weighed about 20 g were selected and fed in a SPF-grade feeding room. Animal tests were conducted strictly according to the guidelines of National Health institutions and the requirements of animal ethics.
as §2

Fluc mRNA [3] = assay: Stability of lipid nanoparticles at 25° C., subcutaneous expression of Fluc mRNA; format: in vivo, mice; conditions: for Fluc expression change after four weeks: 25° C., week 4 versus week 0
Protocol: as §3, §2
(§4) Preparation of Lipid Nanoparticles: The Formulation Method 1 was Used to Prepare LNPs for Subcutaneous Administration.
(§5) The particle size measurements were carried out on the day of preparation (week 0), and after one week (week 1), two weeks (week 2), and four weeks (week 4) of storage at 25° C., and the expression intensities of Fluc mRNA delivered by subcutaneous administration were determined on the day of preparation (week 0) and after four weeks (week 4).

[4] = Stability of lipid nanoparticles at 25° C., DLS particle size and PDI; format: physicochemical; conditions: for particle size change after four weeks of storage: 25° C., week 4 versus week 0; for particle size: preparation day (week 0)
Protocol: as §3, §4
Characterization of lipid nanoparticles: The particle size and PDI of the prepared lipid nanoparticles were measured by Nano-ZSZEN 3600 (Malvern). 40 μL of the LNP solution was taken for particle size measurement with circulation for three times, 30 seconds for each circulation.
as §5

[5] = subcutaneous administration, formulation method 1, 0.5 mg/kg
[6] = tail vein administration, formulation method 2, 0.5 mg/kg
[7] = intramuscular injection, formulation method 2, 0.5 mg/kg
[8] = week 0, subcutaneous administration
[9] = week 4, storage at 25° C., subcutaneous administration

CCCCCCCCC(CCCCCC)OC(=O)CCCCCN(CCCCCC(=O)OC(CCCCCC)CCCCCCCC)C1CCCCC1O (centres unmarked) [Comparative compound 4]
Fluorescence intensity (expression intensity of Fluc mRNA) (Fluc mRNA [1]): 1.3E + 05

CCCCCCCCCCCOC(=O)CCCCCN(CCCCCCCC(=O)OC(CCCCCCCC)CCCCCCCC)C1CCCCC1O (centres unmarked) [Comparative compound 3]
Fluorescence intensity (expression intensity of Fluc mRNA) (Fluc mRNA [1]): 2.9E + 05

CCCCC/C=C\C/C=C\CCCCCCCCOC(=O)CCCCCCCN(CCCCCCOC(=O)C(CCCCCC)CCCCCCCC)C1CCCC(O)C1 (centres unmarked) [Compound 12]
Fluorescence intensity (expression intensity of Fluc mRNA) (Fluc mRNA [2]; [5]): 4.2E + 06 | Fluorescence intensity (expression intensity of Fluc mRNA) (Fluc mRNA [2]; [6]): 6.2E + 06

CCCCCCCCCOC(=O)CCCCCCCN(CCCCCCCC(=O)OC(CCCCCCCC)CCCCCCCC)C1CCCC(OC)C1 (centres unmarked) [Compound 16]
Fluorescence intensity (expression intensity of Fluc mRNA) (Fluc mRNA [2]; [5]): 1.3E + 06

CCCCCCCCCOC(=O)CCCCCCCN(CCCCCCCC(=O)OC(CCCCCCCC)CCCCCCCC)C1CC(O)C1 (centres unmarked) [Compound 1]
Fluorescence intensity (expression intensity of Fluc mRNA) (Fluc mRNA [2]; [5]): 2.7E + 07

CCCCCCCCCCCOC(=O)CCCCCCCN(CCCCCCCC(=O)OC(CCCCCCCC)CCCCCCCC)C1CCCC(C#N)C1 (centres unmarked) [Compound 17]
Fluorescence intensity (expression intensity of Fluc mRNA) (Fluc mRNA [2]; [7]): 6.2E + 06

CCCCCCCCC(CCCCCC)OC(=O)CCCCCN(CCCCCC(=O)OC(CCCCCC)CCCCCCCC)C1CCCC(O)C1 (centres unmarked) [Compound 8]
Fluorescence intensity (expression intensity of Fluc mRNA) (Fluc mRNA [1]): 9.2E + 06 | Fluorescence intensity (expression intensity of Fluc mRNA) (Fluc mRNA [2]; [7]): 9.2E + 06 | Fluorescence intensity (expression intensity of Fluc mRNA) (Fluc mRNA [2]; [6]): 5.1E + 06

CCCCCCCCCOC(=O)CCCCCCCN(CCCCCCCC(=O)OC(CCCCCCCC)CCCCCCCC)C1CCC(O)CC1 (centres unmarked) [Comparative compound 6]
Fluorescence intensity (expression intensity of Fluc mRNA) (Fluc mRNA [1]): 1.9E + 07 | Fluorescence intensity (expression intensity of Fluc mRNA) (Fluc mRNA [1]; listed as comparative compound 6): 1.9E+07

CCCCCCCCCOC(=O)CCCCCCCN(CCCCCCCC(=O)OC(CCCCCCCC)CCCCCCCC)C1CCCC(F)C1 (centres unmarked) [Compound 18]
Fluorescence intensity (expression intensity of Fluc mRNA) (Fluc mRNA [2]; [7]): 7.8E + 06

CCCCCCCCCOC(=O)CCCCCCCN(CCCCCCCC(=O)OC(CCCCCCCC)CCCCCCCC)C1CCC(O)C1 (centres unmarked) [Compound 4]
Fluorescence intensity (expression intensity of Fluc mRNA) (Fluc mRNA [1]): 6.7E + 06

CCCCCCCCCOC(=O)CCCCCCCN(CCCCCCCC(=O)OC(CCCCCCCC)CCCCCCCC)C1CCCC(C(=O)NCCCC)C1 (centres unmarked) [Compound 21]
Fluorescence intensity (expression intensity of Fluc mRNA) (Fluc mRNA [2]; [5]): 1.1E + 06

CCCCCCCCC(CCCCCC)OC(=O)CCCCCN(CCCCCCOC(=O)C(CCCCCC)CCCCCCCC)C1CCCC(O)C1 (centres unmarked) [Compound 15]
Fluorescence intensity (expression intensity of Fluc mRNA) (Fluc mRNA [2]; [7]): 1.8E + 07 | Fluorescence intensity (expression intensity of Fluc mRNA) (Fluc mRNA [2]; [5]): 4.7E + 07 | Fluorescence intensity (expression intensity of Fluc mRNA) (Fluc mRNA [2]; [6]): 3.5E + 06

CCCCCCCCC(CCCCCC)C(=O)OCCCCCCN(CCCCCCOC(=O)C(CCCCCC)CCCCCCCC)C1CCCC(O)C1 (centres unmarked) [Compound 14]
Fluorescence intensity (expression intensity of Fluc mRNA) (Fluc mRNA [2]; [7]): 8.2E + 06 | Fluorescence intensity (expression intensity of Fluc mRNA) (Fluc mRNA [2]; [6]): 4.1E + 06

CCCCCCCCC(CCCCCC)OC(=O)CCCCCN(CCCCCC(=O)OC(CCCCCC)CCCCCCCC)C1CCC(O)CC1 (centres unmarked) [Comparative compound 8]
Fluorescence intensity (expression intensity of Fluc mRNA) (Fluc mRNA [1]): 2.1E + 06

CCCCCCCCCOC(=O)CCCCCCCN(CCCCCCOC(=O)C(CCCCCC)CCCCCCCC)C1CCCC(O)C1 (centres unmarked) [Compound 9]
Fluc expression change after four weeks (Fluc mRNA [3]): did not decrease significantly | Fluc Expression intensities (Fluc mRNA [3]; [8]): 4.2E+07 | Fluc Expression intensities (Fluc mRNA [3]; [9]): 3.1E+07 | particle size change after four weeks of storage [4]: did not increase significantly | particle size [4]: about 100 nm | Z-Average ([4]; week 0 (day of preparation)): 115 nm·days | PDI ([4]; week 1, storage at 25° C.): 0.03 | Z-Average ([4]; week 1, storage at 25° C.): 120 nm·days | PDI ([4]; week 2, storage at 25° C.): 0.06 | Z-Average ([4]; week 2, storage at 25° C.): 125 nm·days | Z-Average ([4]; week 4, storage at 25° C.): 125 nm·days | Fluorescence intensity (expression intensity of Fluc mRNA) (Fluc mRNA [2]; [7]): 3.7E + 07 | Fluorescence intensity (expression intensity of Fluc mRNA) (Fluc mRNA [2]; [5]): 4.2E + 07

CCCCCCCCCOC(=O)CCCCCCCN(CCCCCCCC(=O)OC(CCCCCCCC)CCCCCCCC)C1CCCC(O)C1 (centres unmarked) [Compound 6]
Fluc expression change after four weeks (Fluc mRNA [3]): did not decrease significantly | Fluc Expression intensities (Fluc mRNA [3]; [8]): 3.7E+08 | Fluc Expression intensities (Fluc mRNA [3]; [9]): 3.6E+08 | particle size change after four weeks of storage [4]: did not increase significantly | particle size [4]: about 100 nm | Z-Average ([4]; week 0 (day of preparation)): 110 nm·days | PDI ([4]; week 1, storage at 25° C.): 0.05 | Z-Average ([4]; week 1, storage at 25° C.): 110 nm·days | PDI ([4]; week 2, storage at 25° C.): 0.04 | Z-Average ([4]; week 2, storage at 25° C.): 125 nm·days | Z-Average ([4]; week 4, storage at 25° C.): 125 nm·days | Fluorescence intensity (expression intensity of Fluc mRNA) (Fluc mRNA [2]; [7]): 1.2E + 08 | Fluorescence intensity (expression intensity of Fluc mRNA) (Fluc mRNA [2]; [5]): 3.7E + 08 | Fluorescence intensity (expression intensity of Fluc mRNA) (Fluc mRNA [2]; [6]): 1.7E + 08

CCCCCCCCCCCOC(=O)CCCCCN(CCCCCCCC(=O)OC(CCCCCCCC)CCCCCCCC)C1CCC(O)C1 (centres unmarked) [Compound 5]
Fluc expression change after four weeks (Fluc mRNA [3]): did not decrease significantly | Fluc Expression intensities (Fluc mRNA [3]; [8]): 1.4E+07 | Fluc Expression intensities (Fluc mRNA [3]; [9]): 1.1E+07 | particle size change after four weeks of storage [4]: did not increase significantly | particle size [4]: about 100 nm | Z-Average ([4]; week 0 (day of preparation)): 105 nm·days | PDI ([4]; week 1, storage at 25° C.): 0.05 | Z-Average ([4]; week 1, storage at 25° C.): 110 nm·days | PDI ([4]; week 2, storage at 25° C.): 0.06 | Z-Average ([4]; week 2, storage at 25° C.): 110 nm·days | Z-Average ([4]; week 4, storage at 25° C.): 115 nm·days | Fluorescence intensity (expression intensity of Fluc mRNA) (Fluc mRNA [2]; [5]): 1.4E + 07

CCCCCCCCCCCOC(=O)CCCCCN(CCCCCCCC(=O)OC(CCCCCCCC)CCCCCCCC)C1CCC(O)CC1 (centres unmarked) [Comparative compound 7]
Fluorescence intensity (expression intensity of Fluc mRNA) (Fluc mRNA [1]): 4.5E + 06

CCCCCCCCCOC(=O)CCCCCCCN(CCCCCCCC(=O)OC(CCCCCCCC)CCCCCCCC)C1CCCC1O (centres unmarked) [Comparative compound 1]
Fluorescence intensity (expression intensity of Fluc mRNA) (Fluc mRNA [1]): 1.7E + 05
